Reference: the NIST ThermoML archive (doi:10.1016/j.tca.2007.03.018)
Where “and” joins values, the source holds several entries; their conditions need not be identical. Equal values may be shown once. Numbers after ± are expanded uncertainties.

Experiment: molar heat capacity at saturation pressure
Details: Crystal 3, Small (less than 1 g) adiabatic calorimetry

## C1C2CC3CC1CC(C14CC5CC(CC(C5)C1)C4)(C2)C3 [1,1'-biadamantane]
5.12 K
  molar heat capacity: 0.3991 ± 0.028 J/K/mol
5.48 K
  molar heat capacity: 0.4822 ± 0.029 J/K/mol
5.83 K
  molar heat capacity: 0.5877 ± 0.031 J/K/mol
6.16 K
  molar heat capacity: 0.685 ± 0.033 J/K/mol
6.52 K
  molar heat capacity: 0.8082 ± 0.035 J/K/mol
6.89 K
  molar heat capacity: 0.9715 ± 0.038 J/K/mol
7.26 K
  molar heat capacity: 1.141 ± 0.041 J/K/mol
7.65 K
  molar heat capacity: 1.358 ± 0.044 J/K/mol
8.06 K
  molar heat capacity: 1.589 ± 0.048 J/K/mol
8.49 K
  molar heat capacity: 1.895 ± 0.053 J/K/mol
8.96 K
  molar heat capacity: 2.209 ± 0.058 J/K/mol
9.44 K
  molar heat capacity: 2.572 ± 0.064 J/K/mol
9.95 K
  molar heat capacity: 2.983 ± 0.07 J/K/mol
10.48 K
  molar heat capacity: 3.464 ± 0.077 J/K/mol
11.04 K
  molar heat capacity: 3.988 ± 0.085 J/K/mol
11.61 K
  molar heat capacity: 4.561 ± 0.092 J/K/mol
12.2 K
  molar heat capacity: 5.242 ± 0.1 J/K/mol
12.83 K
  molar heat capacity: 5.943 ± 0.11 J/K/mol
13.49 K
  molar heat capacity: 6.781 ± 0.12 J/K/mol
14.18 K
  molar heat capacity: 7.626 ± 0.13 J/K/mol
14.87 K
  molar heat capacity: 8.538 ± 0.14 J/K/mol
15.63 K
  molar heat capacity: 9.556 ± 0.15 J/K/mol
16.43 K
  molar heat capacity: 10.67 ± 0.17 J/K/mol
17.24 K
  molar heat capacity: 11.86 ± 0.18 J/K/mol
18.08 K
  molar heat capacity: 13.09 ± 0.19 J/K/mol
18.95 K
  molar heat capacity: 14.44 ± 0.2 J/K/mol
19.88 K
  molar heat capacity: 15.84 ± 0.21 J/K/mol
20.83 K
  molar heat capacity: 17.31 ± 0.22 J/K/mol
21.82 K
  molar heat capacity: 18.74 ± 0.23 J/K/mol
22.89 K
  molar heat capacity: 20.35 ± 0.24 J/K/mol
22.95 K
  molar heat capacity: 20.46 ± 0.24 J/K/mol
24.01 K
  molar heat capacity: 21.99 ± 0.25 J/K/mol
24.06 K
  molar heat capacity: 22.16 ± 0.25 J/K/mol
25.22 K
  molar heat capacity: 23.79 ± 0.26 J/K/mol
26.48 K
  molar heat capacity: 25.74 ± 0.26 J/K/mol
27.75 K
  molar heat capacity: 27.57 ± 0.27 J/K/mol
29.1 K
  molar heat capacity: 29.32 ± 0.27 J/K/mol
30.54 K
  molar heat capacity: 31.4 ± 0.26 J/K/mol
31.99 K
  molar heat capacity: 33.13 ± 0.27 J/K/mol
33.46 K
  molar heat capacity: 34.98 ± 0.28 J/K/mol
34.99 K
  molar heat capacity: 36.71 ± 0.28 J/K/mol
36.59 K
  molar heat capacity: 38.54 ± 0.29 J/K/mol
38.25 K
  molar heat capacity: 40.44 ± 0.3 J/K/mol
40.03 K
  molar heat capacity: 42.38 ± 0.31 J/K/mol
41.9 K
  molar heat capacity: 44.38 ± 0.32 J/K/mol
43.85 K
  molar heat capacity: 46.11 ± 0.33 J/K/mol
45.82 K
  molar heat capacity: 48.13 ± 0.34 J/K/mol
47.8 K
  molar heat capacity: 49.99 ± 0.35 J/K/mol
49.9 K
  molar heat capacity: 51.98 ± 0.36 J/K/mol
52.16 K
  molar heat capacity: 54.02 ± 0.37 J/K/mol
56.79 K
  molar heat capacity: 58.28 ± 0.39 J/K/mol
59.06 K
  molar heat capacity: 60 ± 0.4 J/K/mol
61.48 K
  molar heat capacity: 62.21 ± 0.41 J/K/mol
64.1 K
  molar heat capacity: 64.5 ± 0.42 J/K/mol
66.87 K
  molar heat capacity: 66.86 ± 0.43 J/K/mol
69.6 K
  molar heat capacity: 69.08 ± 0.45 J/K/mol
72.27 K
  molar heat capacity: 71.72 ± 0.46 J/K/mol
74.94 K
  molar heat capacity: 73.93 ± 0.47 J/K/mol
77.75 K
  molar heat capacity: 76.41 ± 0.48 J/K/mol
78.69 K
  molar heat capacity: 77.62 ± 0.49 J/K/mol
80.6 K
  molar heat capacity: 79.18 ± 0.5 J/K/mol
81.1 K
  molar heat capacity: 79.65 ± 0.5 J/K/mol
83.35 K
  molar heat capacity: 81.61 ± 0.51 J/K/mol
83.41 K
  molar heat capacity: 81.57 ± 0.51 J/K/mol
85.61 K
  molar heat capacity: 83.56 ± 0.52 J/K/mol
86.26 K
  molar heat capacity: 84.36 ± 0.52 J/K/mol
87.88 K
  molar heat capacity: 85.72 ± 0.53 J/K/mol
89.1 K
  molar heat capacity: 86.73 ± 0.53 J/K/mol
90.15 K
  molar heat capacity: 87.8 ± 0.55 J/K/mol
91.92 K
  molar heat capacity: 89.55 ± 0.56 J/K/mol
92.41 K
  molar heat capacity: 89.88 ± 0.56 J/K/mol
94.69 K
  molar heat capacity: 91.96 ± 0.57 J/K/mol
96.97 K
  molar heat capacity: 94.12 ± 0.58 J/K/mol
99.26 K
  molar heat capacity: 96.28 ± 0.59 J/K/mol
101.55 K
  molar heat capacity: 98.53 ± 0.59 J/K/mol
103.84 K
  molar heat capacity: 100.69 ± 0.6 J/K/mol
106.12 K
  molar heat capacity: 102.85 ± 0.61 J/K/mol
108.41 K
  molar heat capacity: 105.09 ± 0.62 J/K/mol
110.71 K
  molar heat capacity: 107.17 ± 0.63 J/K/mol
113 K
  molar heat capacity: 109.58 ± 0.64 J/K/mol
115.31 K
  molar heat capacity: 111.83 ± 0.65 J/K/mol
117.61 K
  molar heat capacity: 113.99 ± 0.66 J/K/mol
119.9 K
  molar heat capacity: 116.15 ± 0.66 J/K/mol
122.2 K
  molar heat capacity: 118.56 ± 0.67 J/K/mol
124.49 K
  molar heat capacity: 120.81 ± 0.68 J/K/mol
126.77 K
  molar heat capacity: 123.05 ± 0.69 J/K/mol
129.06 K
  molar heat capacity: 125.38 ± 0.7 J/K/mol
130.26 K
  molar heat capacity: 126.5 ± 0.7 J/K/mol
131.34 K
  molar heat capacity: 127.63 ± 0.71 J/K/mol
132.68 K
  molar heat capacity: 129 ± 0.7 J/K/mol
134.96 K
  molar heat capacity: 131.3 ± 0.7 J/K/mol
137.24 K
  molar heat capacity: 133.6 ± 0.7 J/K/mol
139.51 K
  molar heat capacity: 135.9 ± 0.7 J/K/mol
141.78 K
  molar heat capacity: 138.2 ± 0.8 J/K/mol
144.05 K
  molar heat capacity: 140.5 ± 0.8 J/K/mol
146.32 K
  molar heat capacity: 142.9 ± 0.8 J/K/mol
148.59 K
  molar heat capacity: 145.3 ± 0.8 J/K/mol
150.84 K
  molar heat capacity: 147.7 ± 0.8 J/K/mol
153.1 K
  molar heat capacity: 150.1 ± 0.8 J/K/mol
155.35 K
  molar heat capacity: 152.4 ± 0.8 J/K/mol
157.59 K
  molar heat capacity: 154.7 ± 0.8 J/K/mol
159.84 K
  molar heat capacity: 157.1 ± 0.8 J/K/mol
162.08 K
  molar heat capacity: 159.6 ± 0.8 J/K/mol
164.32 K
  molar heat capacity: 161.9 ± 0.8 J/K/mol
166.57 K
  molar heat capacity: 164.4 ± 0.9 J/K/mol
168.8 K
  molar heat capacity: 166.9 ± 0.9 J/K/mol
171.03 K
  molar heat capacity: 169.3 ± 0.9 J/K/mol
173.25 K
  molar heat capacity: 171.7 ± 0.9 J/K/mol
175.46 K
  molar heat capacity: 174.2 ± 0.9 J/K/mol
177.68 K
  molar heat capacity: 176.7 ± 0.9 J/K/mol
179.89 K
  molar heat capacity: 179.2 ± 0.9 J/K/mol
182.09 K
  molar heat capacity: 181.7 ± 0.9 J/K/mol
184.28 K
  molar heat capacity: 184.2 ± 0.9 J/K/mol
186.47 K
  molar heat capacity: 186.7 ± 0.9 J/K/mol
188.65 K
  molar heat capacity: 189.2 ± 1 J/K/mol
190.83 K
  molar heat capacity: 191.6 ± 1 J/K/mol
193 K
  molar heat capacity: 194.2 ± 1 J/K/mol
195.17 K
  molar heat capacity: 196.7 ± 1 J/K/mol
197.33 K
  molar heat capacity: 199.3 ± 1 J/K/mol
199.49 K
  molar heat capacity: 201.8 ± 1 J/K/mol
201.65 K
  molar heat capacity: 204.5 ± 1 J/K/mol
203.8 K
  molar heat capacity: 207.1 ± 1 J/K/mol
205.94 K
  molar heat capacity: 209.8 ± 1 J/K/mol
208.08 K
  molar heat capacity: 212.4 ± 1.1 J/K/mol
210.21 K
  molar heat capacity: 215 ± 1.1 J/K/mol
212.34 K
  molar heat capacity: 217.7 ± 1.1 J/K/mol
214.46 K
  molar heat capacity: 220.3 ± 1.1 J/K/mol
216.58 K
  molar heat capacity: 222.9 ± 1.1 J/K/mol
217.18 K
  molar heat capacity: 223.7 ± 1.1 J/K/mol
218.7 K
  molar heat capacity: 225.6 ± 1.1 J/K/mol
219.55 K
  molar heat capacity: 226.6 ± 1.1 J/K/mol
220.81 K
  molar heat capacity: 228.3 ± 1.1 J/K/mol
221.81 K
  molar heat capacity: 229.5 ± 1.1 J/K/mol
222.91 K
  molar heat capacity: 231 ± 1.1 J/K/mol
224.05 K
  molar heat capacity: 232.4 ± 1.1 J/K/mol
225.01 K
  molar heat capacity: 233.7 ± 1.1 J/K/mol
226.29 K
  molar heat capacity: 235.3 ± 1.1 J/K/mol
228.52 K
  molar heat capacity: 238.3 ± 1.2 J/K/mol
230.75 K
  molar heat capacity: 241.1 ± 1.2 J/K/mol
232.97 K
  molar heat capacity: 244 ± 1.2 J/K/mol
235.18 K
  molar heat capacity: 246.9 ± 1.2 J/K/mol
237.39 K
  molar heat capacity: 249.9 ± 1.2 J/K/mol
239.59 K
  molar heat capacity: 252.9 ± 1.2 J/K/mol
241.79 K
  molar heat capacity: 255.7 ± 1.2 J/K/mol
243.98 K
  molar heat capacity: 258.7 ± 1.2 J/K/mol
246.17 K
  molar heat capacity: 261.7 ± 1.2 J/K/mol
248.35 K
  molar heat capacity: 264.6 ± 1.3 J/K/mol
250.52 K
  molar heat capacity: 267.6 ± 1.3 J/K/mol
252.71 K
  molar heat capacity: 270.6 ± 1.3 J/K/mol
254.88 K
  molar heat capacity: 273.6 ± 1.3 J/K/mol
257.04 K
  molar heat capacity: 276.7 ± 1.3 J/K/mol
259.19 K
  molar heat capacity: 279.8 ± 1.3 J/K/mol
261.34 K
  molar heat capacity: 282.9 ± 1.3 J/K/mol
263.48 K
  molar heat capacity: 286 ± 1.3 J/K/mol
265.62 K
  molar heat capacity: 289.2 ± 1.4 J/K/mol
267.75 K
  molar heat capacity: 292 ± 1.4 J/K/mol
269.87 K
  molar heat capacity: 295.1 ± 1.4 J/K/mol
271.98 K
  molar heat capacity: 298.2 ± 1.4 J/K/mol
274.09 K
  molar heat capacity: 301.2 ± 1.4 J/K/mol
275.74 K
  molar heat capacity: 303.3 ± 1.4 J/K/mol
276.2 K
  molar heat capacity: 304.1 ± 1.4 J/K/mol
277.54 K
  molar heat capacity: 306 ± 1.4 J/K/mol
278.29 K
  molar heat capacity: 307.1 ± 1.4 J/K/mol
279.26 K
  molar heat capacity: 308.4 ± 1.4 J/K/mol
280.39 K
  molar heat capacity: 310.1 ± 1.4 J/K/mol
280.98 K
  molar heat capacity: 311 ± 1.4 J/K/mol
282.47 K
  molar heat capacity: 313.1 ± 1.5 J/K/mol
282.68 K
  molar heat capacity: 313.6 ± 1.5 J/K/mol
284.38 K
  molar heat capacity: 316 ± 1.5 J/K/mol
284.56 K
  molar heat capacity: 316 ± 1.5 J/K/mol
286.08 K
  molar heat capacity: 318.6 ± 1.5 J/K/mol
286.65 K
  molar heat capacity: 319.1 ± 1.5 J/K/mol
287.78 K
  molar heat capacity: 321.1 ± 1.5 J/K/mol
288.72 K
  molar heat capacity: 322.2 ± 1.5 J/K/mol
289.47 K
  molar heat capacity: 323.6 ± 1.5 J/K/mol
290.79 K
  molar heat capacity: 325 ± 1.5 J/K/mol
291.16 K
  molar heat capacity: 325.9 ± 1.5 J/K/mol
292.84 K
  molar heat capacity: 328 ± 1.5 J/K/mol and 328.3 ± 1.5 J/K/mol
294.52 K
  molar heat capacity: 330.7 ± 1.5 J/K/mol
294.89 K
  molar heat capacity: 331.1 ± 1.5 J/K/mol
296.19 K
  molar heat capacity: 333.2 ± 1.5 J/K/mol
296.94 K
  molar heat capacity: 334 ± 1.5 J/K/mol
297.87 K
  molar heat capacity: 335.4 ± 1.5 J/K/mol
298.98 K
  molar heat capacity: 336.9 ± 1.5 J/K/mol
299.54 K
  molar heat capacity: 338 ± 1.6 J/K/mol
301.01 K
  molar heat capacity: 339.9 ± 1.6 J/K/mol
301.2 K
  molar heat capacity: 340.6 ± 1.6 J/K/mol
302.86 K
  molar heat capacity: 342.9 ± 1.6 J/K/mol
303.04 K
  molar heat capacity: 342.7 ± 1.6 J/K/mol
304.51 K
  molar heat capacity: 345.2 ± 1.6 J/K/mol
305.05 K
  molar heat capacity: 345.7 ± 1.6 J/K/mol
